The record followed here is paper PMC7494911.

Test [1] has as its system αvβ6-mediated TGFβ activation. The test is described as follows: cells. To be noted: for activity: read-out: % inhibition of pSmad2 (NHBE cells); for IC50: Homo sapiens. The test is classed as cell-based, human.
Test [2] relates to pSmad2 in lung tissue. The test is described as follows: Lung tissue pSmad2 in bleomycin-treated mice, single dose. The class given is in vivo, mouse. The protocol:
(§1) For the measurement of concentration-dependent effects of αvβ6 and TGFβR1 inhibitors on TGFβ activation and signaling in NHBE cells, pSmad2 (normalized to GAPDH) was measured. pSmad2 and GAPDH was quantified using the Milliplex TGFβ Signaling Magnetic Bead Panel 6 plex (Merck Millipore, Billerica, MA, USA) luminex assay according to the manufacturer’s instructions. pSmad2 was determined using the same method for in vivo and ex vivo tissue and BAL samples, however data were normalized to tSmad2. tSmad2 was measured in the Pathscan Total Smad2 sandwich ELISA kit (Cell Signaling Technologies, London, UK), according to the manufacturer’s instructions with standard curves generated using recombinant GST-Smad2. βIG-H3 was determined in mouse and human BAL fluid samples using the mouse or human βIG-H3 DuoSet ELISA kit (R&D Systems, Abingdon, USA) respectively, according to the manufacturer’s instructions. PAI-1 was determined in mouse and human BAL fluid samples using the mouse or human PAI-1 Total antigen ELISA kit (Molecular Innovations, Novi, MI, USA) respectively, according to the manufacturer’s instructions.
(§2) Animal welfare followed the requirements of the Home Office Code of Practice for the Housing and Care of Animals used in Scientific Procedures. […] Play tunnels and bedding material were used to provide environmental enrichment. […]

In test [3] the test system is pSmad2 in BAL cells. The test is classed as in vivo, mouse. To be noted: bleomycin mice. As to the method: as §1, §2
In test [4] the test system is pSmad2 in IPF PCLS. Nature of the test: pSmad2 in precision cut lung slices (PCLS) from IPF patients. The class given is cell-based, human. To be noted: for IPF PCLS pSmad2/tSmad2 ratio: 1 µM compound, individual replicates n=1-3 (Fig 5f). The protocol: Human fibrotic lung tissue was collected from human explants after transplantation. Tissue which the pathologist deemed suitable for research was inflated with 2–3% low boiling point agarose, with the agarose being allowed to set at 4 °C. PCLS were then cut at 400 μm on a vibrating microtome and cultured in DMEM media.

Setting [5] is: 30 mg/kg p.o., 2 h post dosing, in words.
[6] abbreviates: SB-525334 30 mg/kg p.o., 2 h, individual animals, 30 mg/kg.

Several values for one entry are separate records, joined by “and”; a condition that tells them apart may be missing. Identical values can stand only once. Like-named read-outs stand apart in the source and are kept apart here.

As to `Cc1cccc(-c2[nH]c(C(C)(C)C)nc2-c2ccc3nccnc3c2)n1` [SB-525334], the activity in test [1] (Log [SB-525334] M -6) is 15% and 11% and 10% and 14%; in test [1] (Log [SB-525334] M -9), 138% and 105% and 82% and 100%; in test [1] (Log [SB-525334] M -11.4), 114%. Further, in test [1] (NHBE cells), the “pIC50 for inhibition of αvβ6-mediated TGFβ activation (pSmad2)” value was 7.28 ± 0.13. In test [2] (setting [5]), the “pSmad2 levels in lung tissue” value is on record as “significantly reduce”. In test [2] (setting [6]), the “Lung tissue pSmad2/tSmad2 ratio” value is 0.09 and 0.07 and 0.1 and 0.13. Also, the “pSmad2 levels in BAL cells” value in test [3] (setting [5]) was “significantly reduce”. In test [3] (setting [6]), the “BAL cell pSmad2/tSmad2 ratio” value was 1.33 and 0.67 and 0.7 and 1.48 and 0.61 and 0.44 and 2.35 and 1.1 and 1. Further, the “IPF PCLS pSmad2/tSmad2 ratio” value in test [4] (IPF PCLS) is 0.063 and 0.062 and 0.055. Besides, the “% pSmad2 in IPF PCLS” value in test [4] (SB-525334 1µM) is 1% and 0% and -1%.
Turning to `O=C(O)C[C@@H]1Cc2ccc(OCCCNc3ccccn3)cc2CN(CC(F)(F)F)C1=O` [SB-267268], the “IPF PCLS pSmad2/tSmad2 ratio” value in test [4] (IPF PCLS) was 0.766 and 0.64 and 0.76. Besides, the “pSmad2 levels in IPF PCLS” value in test [4] (in words) is “Neither compound inhibited pSmad2 levels”.
`Cc1cc(C)n(-c2cccc([C@H](CC(=O)O)CN3CC[C@@H](CCc4ccc5c(n4)NCCC5)C3)c2)n1` [GSK3008348]: the IC50 in test [1] (NHBE cells, read-out: IC50 for inhibition of αvβ6-mediated TGFβ activation (pSmad2)) was 0.15 nM; in test [1] (NHBE cells, read-out: pIC50 for inhibition of αvβ6-mediated TGFβ activation (pSmad2) (converted)), 0.741 nM; in test [4] (Homo sapiens, IPF PCLS, 48 h, read-out: approximate IC50 for reduction of pSmad2), about 3 nM. Also, the activity was 47% and 37% and 58% and 41% in test [1] (Log [GSK3008348] M -9); 108% in test [1] (Log [GSK3008348] M -10.8); 92% and 95% in test [1].
